Test system: human primary NOK
Assay: Replicative senescence / cumulative population doublings
Type: cell-based
Details: in the presence of rapamycin; estimated
Experimental: NOK were plated in collagen coated LabTek chamber slides and treated with vehicle or 20 nM rapamycin for 3 days. Cells were then γ-irradiated or not, and further treated with vehicle or rapamycin for 24 h. For TUNEL assay cells were processed for staining immediately, for SA-β-gal cells were passed and assessed 4 days after plating. Apoptosis was detected using the CLICK-IT™ TUNEL ALEXA FLUOR™ 594 Imaging Assay (Life Technologies, Carlsbad, Calif.) and SA-β-gal activity was measured using the SA-β-gal kit (Cell Signaling Technology, Danvers, Mass.) according to the manufacturer's instructions. The proportion of positive cells was determined by fluorescence or transmission microscopy and quantified using ImageJ. Eight different fields containing approximately 60 cells each were quantified per condition. For the calculation of population doublings cells were cultured as described and treated with vehicle or 20 nM rapamycin. Population doublings were calculated every passage using the formula x=[log 10(NH/N1)]/log 10(2)] (Cristofalo et al., PNAS, 95, 10614-10619 (1998)), where N1 is the inoculum cell number and NH the cell harvest number. To yield the cumulated doubling doublings, the population doublings for each passage was calculated and then added to the population doubling levels of the previous passages.

CO[C@H]1C[C@@H]2CC[C@@H](C)[C@@](O)(O2)C(=O)C(=O)N2CCCC[C@H]2C(=O)O[C@H]([C@H](C)C[C@@H]2CC[C@@H](O)[C@H](OC)C2)CC(=O)[C@H](C)/C=C(\C)[C@@H](O)[C@@H](OC)C(=O)[C@H](C)C[C@H](C)/C=C/C=C/C=C/1C [rapamycin]
cells a single cell will give rise to before senescence: around 10^17 cells
